{"source": "paper PMC10212513", "about": "“Site IQ in mitochondrial complex I generates S1QEL-sensitive superoxide/hydrogen peroxide in both the reverse and forward reactions” (Biochemical Journal, 2023)", "key": {"[1]": {"tested_on": "site IQf in complex I", "assay": "Amplex UltraRed assay of superoxide/hydrogen peroxide production during forward electron transport (glycerol 3-phosphate plus 50 µM glutamate plus malate)", "format": "biochemical, rat", "method": "Cuvette- and plate-based assays of superoxide/hydrogen peroxide production during RET using 12.5 mM G3P (or during FET using 12.5 mM G3P, 50 µM glutamate plus 50 µM malate) as substrate were conducted at 37°C as described [45] using 0.2 mg of mitochondrial protein/ml in 3 ml (plastic cuvettes, Varian Cary Eclipse spectrofluorometer (Ex 560 nm/Em 590 nm)) or 0.2 mg mitochondrial protein/ml, 0.01 mg/well (Pherastar FS (BMG) fluorescence microplate reader, Ex 540 nm/Em 590 nm), in KHEB medium (120 mM KCl, 3 mM HEPES, 1 mM EGTA, 0.3% w/v bovine serum albumin, pH 7.4) containing 25 U/ml SOD1, 25 µM Amplex Ultrared, and 5 U/ml HRP, plus dimethyl sulfoxide (DMSO) or treatments as indicated."}, "[2]": {"tested_on": "isolated rat skeletal muscle mitochondria", "format": "biochemical", "method": "Mitochondria were immobilised in coverglass-bottomed 96-well microplates (Greiner Sensoplate) by centrifugation for 15 min at 1000 g in KHEB medium at 4°C. The microplate was warmed in the 37°C heated environment chamber of a Nikon Eclipse Ti-PFS fully motorised wide-field fluorescence microscope equipped with a Lambda 821 LED light source with Lambda 10-3 emission filter wheel and Andor iXon Life 888 EMCCD camera, controlled by NIS Elements 5.20. TMRM (100 nM) was added to the wells, and in successive additions substrates were added without changing the TMRM concentration. TMRM was imaged using a Super Fluor 40× NA1.3 oil lens, a 586/20 nm excitation filter on a 560 nm LED, a 593 nm dichroic mirror, and a 641/75 nm emission filter capturing the centre 512 × 512 pixels area of the camera with no binning and with 1.5× optical zoom (0.17 µm/pixel resolution). Multiple (typically 25) view fields were recorded in one to three wells for 3 time points per substrate condition. In some experiments, TMRM imaging was followed by recording frames of NAD(P)H autofluorescence in the same view fields using a 340 nm LED, 414 nm dichroic mirror and 460/80 nm emission filter. The first autofluorescence frame matched the substrate condition of the last TMRM frame and then the recording of three more frames followed the application of rotenone (4 µM) or FCCP (4 µM) by 1 min delay. Recordings were analysed in Image Analyst MKII 4.2.1 (Image Analyst Software, Novato, CA) by performing image registration, background subtraction and ROI-based intensity measurement. Background was subtracted first as a blank image and then frame-by-frame using the ‘Mean of pixels below percentile of max projection (dilated mask)' method. Single-mitochondria ROIs were generated by morphological segmentation using a modification of the ‘Mitochondria : cell volume fractionator (basic)' standard pipeline. ΔψM was calculated using the Nernst equation. Because fluorescence was small in the absence of substrates, polarisation by G + M was calculated from TMRM fluorescence intensities (FTMRM) by comparison to succinate as 61 mV × log(FTMRM_G + M/FTMRM_succinate), which expresses how much less polarisation was provided by G + M than succinate, in millivolts. Polarisation by G3P was calculated by comparison to G + M as 61 mV × log(FTMRM_G3P/FTMRM_G + M), which expresses the millivolts hyperpolarisation when G3P is added in the presence of G + M. Changes in NAD(P)H autofluorescence (ΔNADH) were expressed as the observed fluorescence intensity change normalised to the population mean fluorescence before rotenone (or FCCP) addition. […] This was then converted to log2-fold changes to provide symmetrical distributions. Scatter plots were generated and analysed in Mathematica 13 (Wolfram Research)."}, "[3]": {"tested_on": "Fa2N-4 cells", "assay": "NAD(P)H autofluorescence two-photon imaging, single-cell analysis", "format": "cell-based", "protocol": "Subcellular resolution micrographs of NAD(P)H autofluorescence were recorded using an upright Zeiss LSM 7MP multiphoton microscope, equipped with a Chameleon Vision II mode-locked laser set to 710 nm (1–1.5% of the 745 mW output power was used) and W Plan-Apochromat 20×/1.0 DIC M27 75 mm dipping water immersion objective lens and detection of emission between 420 and 480 nm. 1024 × 1024 pixels images (0.2 µm/pixel) were recorded at maximal scan speed and 8× frame averaging. Time courses of two frames, one before and one after the addition of rotenone (2 µM), FCCP (4 µM) or vehicle (DMSO 1 : 2000) were recorded using the Zeiss Multi Time Series macro. The cell monolayer was auto-focused at one x,y-position, and four other positions were imaged for analysis in each dish. Recordings were analysed in Image Analyst by rigid image registration, background subtraction and ROI-based intensity measurement. Unbiased single-cell ROIs were generated in using Cellpose 2.0 [48] with the ‘cyto2' neural network. Histograms were generated in Mathematica."}, "[4]": {"tested_on": "rat skeletal muscle mitochondria", "assay": "Respiration of isolated mitochondria on glycerol 3-phosphate (Seahorse extracellular flux analyzer)", "format": "biochemical", "details": "1–10 µM; in the presence of ADP; n = 2–3", "protocol": "Mitochondrial respiration was assayed at 37°C using an Agilent Seahorse XFe-24 as described previously, using 12.5 mM G3P as substrate."}, "[5]": {"tested_on": "Fa2N-4 cells", "assay": "Subcellular analysis of NAD(P)H autofluorescence (mitochondria within cells)", "format": "cell-based", "details": "rotenone challenge", "protocol": "The NAD(P)H autofluorescence multiphoton time courses described above were de-noised by Wiener filtering, cropped based on the Cellpose ROIs resulting in 256 × 256 pixels images of single cells, and surrounding structures were masked in Image Analyst MKII. Then, to compensate for the motility of mitochondria during the time courses, B-spline-based deformable image registration was performed in Elastix 5.0.1 [49]. Image registration was quality controlled subjectively plus by calculating Pearson’s cross-correlation coefficient between before- and after-rotenone frames, and cells with a value lower than 0.6 were discarded. The pixel-by-pixel ratio of after- over before-treatment frames was calculated, masked by mitochondrial profiles generated by Otsu’s threshold method (with a logical OR of before- and after-frames), and log2 of the ratios was taken for all pixels. Image histograms were saved to Excel and analysed in Mathematica using a maximum log-likelihood method for fitting the binned log2-fold intensity values with normal distribution(s). Mock treatments were fitted well with a single, symmetric distribution. We attribute this change of pixel intensities between the consecutive frames of the time course to motility artefacts and noise. The distribution of log2-fold pixel intensity changes for rotenone-treated cells was wider, and therefore we coarsely modelled it as sum of two normal distributions (rotenone-responsive and unresponsive mitochondria, with σ matching that of the mock-treatment modelling motility and noise effects). […] This analysis was repeated for individual single cells (total 185 in three experiments)."}, "[6]": {"details": "plate-reader titrations, IQf versus IQr, 2 µM atpenin A5, 10 µM S3QEL3"}, "[7]": {"details": "rotenone 4 µM challenge, 50 µM G + M plus 12.5 mM G3P"}}, "note": "Like-named read-outs stand apart in the source and are kept apart here.", "data": [{"smiles": "N#CC(C#N)=NNc1ccc(OC(F)(F)F)cc1", "note": "[FCCP]", "values": [{"measurement": "Sensitivity of superoxide/hydrogen peroxide production from site IQf compared with site IQr", "setting": "[1]", "value": "equally sensitive"}, {"measurement": "Mitochondria responding with significant oxidation of NADH", "setting": "[2]", "value": "85 ± 2", "unit": "%"}, {"measurement": "Cells responding with a decrease in NAD(P)H autofluorescence", "setting": "[3]; FCCP 4 µM", "value": "All cells"}]}, {"smiles": "COc1[nH]c(=O)c(C(=O)[C@@H](C)C[C@H](C)[C@@H](Cl)CCl)c(O)c1OC", "note": "[atpenin A5]", "values": [{"measurement": "Effect on respiration on 12.5 mM G3P", "setting": "[4]", "value": "no significant effect"}]}, {"smiles": "CO[C@@H]1C[C@@H](C[C@H]2CC[C@H](C)[C@H]([C@@H](C)C(=O)O)O2)O[C@]2(O[C@](C)([C@H]3CC[C@@](C)([C@@H]4O[C@@H]([C@H]5O[C@@](O)(CO)[C@H](C)C[C@@H]5C)C[C@@H]4C)O3)C[C@H]2C)[C@@H]1C", "note": "[nigericin]", "values": [{"measurement": "Sensitivity of superoxide/hydrogen peroxide production from site IQf compared with site IQr", "setting": "[1]; [6]", "value": "equally sensitive"}]}, {"smiles": "C/C=C(\\C)[C@H](O)[C@H](C)/C=C(C)/C=C/C/C(C)=C/Cc1nc(OC)c(OC)c(O)c1C", "note": "[piericidin A]", "values": [{"measurement": "Superoxide/hydrogen peroxide production by site IQf at highest concentration", "setting": "[1]; 10 µM, plate-reader", "value": "IQf activity reappeared"}, {"measurement": "Sensitivity of superoxide/hydrogen peroxide production from site IQf compared with site IQr", "setting": "[1]; [6]", "value": "equally sensitive"}]}, {"smiles": "C=C(C)[C@H]1Cc2c(ccc3c2O[C@@H]2COc4cc(OC)c(OC)cc4[C@@H]2C3=O)O1", "note": "[rotenone]", "values": [{"measurement": "Sensitivity of superoxide/hydrogen peroxide production from site IQf compared with site IQr", "setting": "[1]; [6]", "value": "equally sensitive"}, {"measurement": "Mitochondria responding by significantly increasing the reduction of their NADH/NAD+ pool", "setting": "[2]; [7]", "value": 65, "unit": "%"}, {"measurement": "Mitochondria that did not change NAD(P)H fluorescence significantly", "setting": "[2]; [7]", "value": "30 ± 9", "unit": "%"}, {"measurement": "Mitochondria responding by significant oxidation of NADH to NAD+", "setting": "[2]; rotenone 4 µM challenge, 50 µM G + M plus 12.5 mM G3P, n = 4", "value": "4.2 ± 1.1", "unit": "%"}, {"measurement": "Cells responding with an increase in NAD(P)H autofluorescence", "setting": "[3]; rotenone challenge (4 µM in legend, 2 µM in methods), n = 4", "value": "97 ± 4", "unit": "%"}, {"measurement": "Cellular mitochondria oxidising on challenge (excess pixel count)", "setting": "[5]; n = 3", "value": "0.5 ± 0.1", "unit": "%"}, {"measurement": "Mitochondria in cells estimated to respond poorly or not at all", "setting": "[5]; n = 3 experiments, 185 cells", "value": "26 ± 3", "unit": "%"}, {"measurement": "Mitochondria in cells that responded with increased fluorescence", "setting": "[5]; n = 3 experiments, 185 cells", "value": "74 ± 3", "unit": "%"}, {"measurement": "Mean increase in NAD(P)H fluorescence intensity of responding mitochondria", "setting": "[5]; responder population", "value": "50 ± 10", "unit": "%"}]}]}
